Assay results reported in US20150238539A1, “COMPOSITION FOR BRAIN-NEURON PROTECTION AND BRAIN-DISEASE PREVENTION, ALLEVIATION OR TREATMENT COMPRISING MUSKRAT MUSK” (priority 2012, published 2015).

Tests used:
male ICR mouse [1] = assay: Passive avoidance experiment in mice with ethanol-induced memory damage; type: in vivo; conditions: oral once a day for 4 days; for Time of arrival in the learning test: acquisition trial, ethanol orally 30 minutes after last administration; for Time of arrival in the retention trial: step-through latency 24 hours after learning test, measured up to 300 seconds, then ethanol
Description: (§1) As for the experimental animals, 18 to 20 g of 45 male ICR mouse purchased from DAEHAN Animal Experiment Co., Ltd. were used. Specifically, the animals were classified to include five mice per group, then placed in a cage, sufficiently fed with water and foodstuff, and bred in an animal room wherein the temperature (24 ±1° C.), relative humidity (55±5%) and the light-dark (06:00-18:00, light) were controlled during the experiment period. The animals were classified into nine groups of the non-treated group, the ethanol group, the tacrine group and the groups of PREPARATIONS 1 to 6.
The passive avoidance experiment was performed in order to confirm the effects of the compositions of PREPARATIONS 1 to 6 on each memory and learning. This experiment uses the characteristics that animals intend to enter into the dark instinctively. If the animals intend to enter into the dark, an electrical stimulation is given to the animals to prevent from entering the dark. Thereafter, the short-term memory power against the electrical stimulation was measured.
Four days before the passive avoidance experiment, tacrine and substances PREPARATIONS 1 to 6 were orally administered to seven other groups except for the non-treated group and the ethanol group once a day. On day 4, the last day of administration, tacrine and compositions of PREPARATIONS 1 to 6 were orally administered. After 30 minutes, ethanol which undergoes damage to the memory power of mouse was orally administered to eight groups except for the non-treated group.
The passive avoidance experiment was conducted in the apparatus wherein each room having the same structure and 60 dB or less of noise and including a room with light and a room without light (width 20 cm, length 20 cm, height 20 cm) is connected to the guillotin door (Jungdo Bio & Plant Co. Ltd, Seoul, Korea). The mouse was placed in a bright room with shining light and observed for 10 seconds. Subsequently, the door was opened and the mouse was allowed to enter into the dark room. At this time, the time taken to go into a dark room was measured (Learning Test: acquisition trial). If the mouse enters into the dark room, the door is automatically closed. The electrical stimulation of 0.6 mA was given to the mouse through the stainless grid on the bottom for five seconds.
In order to confirm the effect of recovering the cognitive function of the composition the present invention, influencing on the long-term memory after the learning test, the mouse was placed on the bright side of the room after 24 hours. The time taken to go into the dark room (step-through latency time: time of arrival) was measured up to 300 seconds (retention trial).

male ICR mouse [2] = assay: Morris water-maze experiment in mice with ethanol-induced memory damage; type: in vivo; conditions: oral once a day for 4 days, then ethanol; for Mean escape latency: mean of 3 trials a day, cut-off 120 seconds; for Time spent in quadrant: probe test on last day, escape platform removed
Description: as §1
The morris water-maze experiment was carried out to measure the degree affecting the recovery of the spatial perception ability and short-term or long-term memory power in experimental animals.
Prior to the morris water-maze experiment, tacrine and the substances of PREPARATIONS 1 to 6 were orally administered to seven groups except for the non-treated group and the ethanol group once a day. On the 4th day, the last day of administration, tacrine and the substances from Preparations 1 to 6 were administered. After 30 minutes, ethanol which undergoes damage to the memory power of the mouse was orally administered to eight groups except for the non-treated group.
In the morris water-maze apparatus, water (temperature: 22±2° C.) was filled by 32 cm within a tank filled with opaque water (diameter 120 cm, height 45 cm) and an escape platform (diameter 10 cm, height 30 cm) was installed in one section of the quadrant located 2 cm below the surface of the water. The powdered skim milk was added to be invisible. The experiment was conducted for five days. The possibility of going to the escape area by chance by changing the positions of acquisition three times a day at three different positions which were minimized. If animals go to the escape area and stay for more than 10 seconds, the time taken until an escape area was found was set to the escape latency. The mean value of the experiments 3 times a day was set to the mean escape latency. In the morris water-maze test, since the test animals remembered and find out the targeting position, the position of the marker was remained constant during the experiment period so that there was no change in the surrounding environment. In the case where the escape platform was not found within 120 seconds, the experiment animal was induced to the escape platform and stayed for 10 seconds, thereby having the position remembered.
On the last day of the experiment, the escape platform was removed. The probe test for measuring the time spent in platform quadrant was carried out.

CCO [Ethanol, ethanol]
Time of arrival in the learning test (male ICR mouse [1]): 12 s | Time of arrival in the retention trial (male ICR mouse [1]): 21 s | Mean escape latency (male ICR mouse [2]): 121 s | Time spent in quadrant (male ICR mouse [2]): 18 s

Nc1c2c(nc3ccccc13)CCCC2 [Tacrine, tacrine]
Time of arrival in the learning test (male ICR mouse [1]): 20 s | Time of arrival in the retention trial (male ICR mouse [1]): 85 s | Mean escape latency (male ICR mouse [2]): 56 s | Time spent in quadrant (male ICR mouse [2]): 28 s
